{"source": "paper PMC8998618", "about": "“A Pharmacokinetic and Metabolism Study of the TRPC6 Inhibitor SH045 in Mice by LC-MS/MS” (International Journal of Molecular Sciences, 2022)", "assay": "time-dependent metabolization (stability) in HLM and IVIVE of hepatic clearance", "type": "in vitro ADME, human", "description": "In the widely used concept of the “well-stirred” model, liver represents a single uniform compartment. It is further assumed that the concentration of unbound SH045 leaving the liver is in equilibrium with its unbound concentration in hepatocytes (detailed calculation in Supplementary Materials SM8, summarized values in SR4). Briefly, microsomal intrinsic clearance was converted to hepatic clearance: CLhep = Q × fu × CLint/Q + (fu × CLint), where fu is the unbound fraction of SH045 in blood and Q is the hepatic blood flow in mice.\nFor this purpose, remaining concentrations of SH045 in microsomes were determined to calculate the intrinsic microsomal clearance CLint,micr, the intrinsic clearance CLint, equal to the maximum enzyme activity of liver and for in vitro-in vivo exploration of hepatic clearance CLhep in mouse and human using the well-stirred model. The algorithm for these calculations is given in detail in the Supplementary Materials SM8. […]\nAll microsome incubations were stopped with 1 mL ice -cold ACN containing 5 µg/mL IS, vortexed for 1 min and cooled at -20 °C for 10 min. […]\n2 µL SH045 (final concentration 0.5 – 100 µM, in triplicate), 12.5 µL HLM or MLM (finally 0.5 mg/mL protein) and 460.5 µL DPBS were vortexed and preincubated 37 °C for 5 min. The reaction was initiated by addition of 25 µL analogously pre-incubated β-NADPH (finally: 1 mM). […]\nTestosterone (10 µM in ACN/DPBS 2/3, v/v) instead of SH045 was used as positive control and analyzed by an appropriate HPLC method with UV detection.\nNegative controls contained either no NADPH, no MLM or HLM or none of them. […]\nMean maximum rate vmax and Michaelis-Menten constant Km were calculated using Lineweaver-Burk transformation. From Km an appropriate drug concentration of 2 µM was derived as prerequisite for experimental in vitro determination of t1/2 required for further exploration of clearance.\nFor this purpose, microsomes were incubated as described above with 2 µM SH045 for indicated time intervals up to 30 min. The remaining concentrations of SH045 were determined to calculate the intrinsic microsomal clearance CLint,micr the intrinsic clearance CLint, equal to the maximum enzyme activity of liver and for in vitro-in vivo exploration of hepatic clearance CLhep in mouse and human using the “well-stirred” model [6].\nSM7 Identification of metabolism pathways and metabolites of SH045 in MLM and HLM To determine possible metabolism pathways of SH045 in MLM and HLM, an in vitro inhibition approach was performed with CYP-isoform specific inhibitors (final concentration): ciprofloxacin (CYP1A2; 150 µM), pilocarpine (CYP2A6; 50 µM), ticlopidine (CYP2B6; 5 µM), quercetin (CYP2C8; 2 µM), sulfaphenazole (CYP2C9; 10 µM), fluvoxamine (CYP2C19; 10 µM), quinidine (CYP2D6; 10 µM), 4-methyl pyrazole (CYP2E1; 100 µM) and ketoconazole (CYP3A4; 1 µM) [7, 8]. The inhibitors were dissolved in DPBS and appropriate methanol, the organic solvents not […]\nSH045 (2 µM) was pre-incubated with MLM or HLM (0.5 mg/mL) and the specific inhibitor for 5 min at 37 °C in DPBS.\nTiclopidine, a time-dependent inhibitor was pre-incubated for 15 min [9]. Incubations were performed in triplicate with NADPH (1 mM) in a final volume of 500 µL for 2 min and 10 min with pre-incubated MLM and HLM, respectively, terminated with 1 mL ice-cold ACN and processed as described above for LC-MS/MS. A sample without any inhibitor served as a positive control. […]"}
{"smiles": "C=C[C@@](C)(O)CC[C@H]1C(=C)C[C@H](OC(=O)NC)[C@H]2C(C)(C)CCC[C@]12C", "note": "[SH045, (1S,4S,4aR,8aS)-4-((S)-3-Hydroxy-3-methylpent-4-en-1-yl)-4a,8,8-trimethyl-3-methylenedecahydronaphthalen-1-yl methylcarbamate]", "values": [{"measurement": "CLint scaled at 2 µM", "setting": "human, liver microsomes, scaled from CLint,micr", "value": 334, "unit": "mL/min/kg"}, {"measurement": "CLhep", "setting": "human, predicted by well-stirred model, Q 21 mL/min/kg", "value": 0.96, "unit": "mL/min/kg"}, {"measurement": "CLint", "setting": "human, scaled from CLint,micr", "value": 334.6, "unit": "mL/min/kg"}, {"measurement": "half-life at 2 µM", "setting": "pH 7.4, human liver microsomes 0.5 mg/mL, 2 µM SH045, NADPH", "value": 4.85, "unit": "min"}, {"measurement": "microsomal CLint at 2 µM", "setting": "pH 7.4, human liver microsomes, read-out: CLint, micr", "value": 286, "unit": "µL/min/mg"}]}
